Source: PMC7615677 (Science translational medicine, 2023)
“Also recorded” adds a separate entry of the source. Like-named read-outs stand apart in the source and are kept apart here.

What was measured:
CYP2C8 = biological target: T1, CYP2C8 (Homo sapiens, UniProt P10632); experiment: Cytochrome P450 inhibition, human liver microsomes; format: in vitro ADME
T1 construct: incubation of isoform-specific substrates with human liver microsomes; from tissue; host or cells: human liver microsomes
T1 sequence (P10632 1-490): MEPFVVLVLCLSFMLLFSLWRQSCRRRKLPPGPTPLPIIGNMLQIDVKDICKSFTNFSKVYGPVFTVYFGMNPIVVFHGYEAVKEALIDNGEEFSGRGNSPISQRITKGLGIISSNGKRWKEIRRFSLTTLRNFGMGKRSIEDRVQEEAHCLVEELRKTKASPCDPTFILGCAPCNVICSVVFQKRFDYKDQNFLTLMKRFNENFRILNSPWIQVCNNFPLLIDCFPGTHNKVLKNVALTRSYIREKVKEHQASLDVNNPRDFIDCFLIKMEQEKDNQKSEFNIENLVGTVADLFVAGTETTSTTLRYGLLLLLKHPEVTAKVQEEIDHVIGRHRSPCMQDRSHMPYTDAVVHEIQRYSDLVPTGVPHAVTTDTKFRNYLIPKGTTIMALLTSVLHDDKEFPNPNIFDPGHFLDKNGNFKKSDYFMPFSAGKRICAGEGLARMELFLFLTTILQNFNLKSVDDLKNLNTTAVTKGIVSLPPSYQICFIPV
Description: (§1) Direct CYP inhibition studies were conducted using conditions described previously ([43]) following incubation of isoform-specific substrates with human liver microsomes. The formation of known metabolites mediated by a specific CYP isoform was monitored. CYP isoform-specific pathways (and positive control inhibitors) included CYP1A2: phenacetin O-deethylation (furafylline), CYP2B6: bupropion hydroxylation (PPP), CYP2C8: amodiaquine deethylation (quercetin) CYP2C9: tolbutamide methylhydroxylation (sulfaphenazole), CYP2C19: (S)-mephenytoin 4’-hydroxylation (ticlopidine), CYP2D6: dextromethorphan O-demethylation (quinidine), and CYP3A: midazolam 1’-hydroxylation and testosterone 6β-hydroxylation (ketoconazole). […] The organic solvent content was maintained at less than 1% (v/v). NADPH was added to initiate the reaction which was then quenched by the addition of acetonitrile containing internal standard at specified times. Concentrations of the isoform-specific metabolites were quantified by LC-MS (Waters Xevo TQD triple quadrupole MS coupled to a Waters Acquity UPLC system) relative to calibration standards prepared in pre-quenched microsomal matrix.
(§2) Time dependent inhibition was assessed using an “IC50 shift” method based on a previous publication ([44]). […] A shift in the IC50 in the presence of NADPH (relative to the absence) was used as an indication of time dependent inhibition. Reference direct and time-dependent inhibitors were included in the assays.

CYP2B6 = biological target: T2, CYP2B6 (Homo sapiens, UniProt P20813); experiment: Cytochrome P450 inhibition, human liver microsomes; format: in vitro ADME
T2 construct: incubation of isoform-specific substrates with human liver microsomes; from tissue; host or cells: human liver microsomes
T2 sequence (P20813 1-491): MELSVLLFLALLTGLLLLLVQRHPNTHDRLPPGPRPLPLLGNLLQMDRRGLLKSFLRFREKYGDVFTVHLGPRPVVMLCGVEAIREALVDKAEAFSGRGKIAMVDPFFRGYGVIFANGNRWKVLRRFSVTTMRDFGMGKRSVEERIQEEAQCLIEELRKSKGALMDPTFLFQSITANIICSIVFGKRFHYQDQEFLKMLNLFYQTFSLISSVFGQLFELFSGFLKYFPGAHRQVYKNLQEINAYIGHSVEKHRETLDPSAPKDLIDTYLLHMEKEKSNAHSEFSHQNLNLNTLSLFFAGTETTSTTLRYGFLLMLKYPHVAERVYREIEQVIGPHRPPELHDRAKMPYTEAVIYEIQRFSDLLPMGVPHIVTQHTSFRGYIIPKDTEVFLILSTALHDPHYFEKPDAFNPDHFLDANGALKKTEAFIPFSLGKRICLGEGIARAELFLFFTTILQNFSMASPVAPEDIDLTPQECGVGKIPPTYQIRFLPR
Description: as §1, §2

CYP3A4/5 = experiment: Cytochrome P450 inhibition, human liver microsomes; format: in vitro ADME; details: for IC50: read-out: Direct inhibition IC50; for IC50 at 30 min: read-out: Time-dependent inhibition IC50
Description: as §1, §2

CYP2D6 = biological target: T3, CYP2D6 (Homo sapiens, UniProt P10635); experiment: Cytochrome P450 inhibition, human liver microsomes; format: in vitro ADME
T3 construct: incubation of isoform-specific substrates with human liver microsomes; from tissue; host or cells: human liver microsomes
T3 sequence (P10635 whole entry, canonical isoform): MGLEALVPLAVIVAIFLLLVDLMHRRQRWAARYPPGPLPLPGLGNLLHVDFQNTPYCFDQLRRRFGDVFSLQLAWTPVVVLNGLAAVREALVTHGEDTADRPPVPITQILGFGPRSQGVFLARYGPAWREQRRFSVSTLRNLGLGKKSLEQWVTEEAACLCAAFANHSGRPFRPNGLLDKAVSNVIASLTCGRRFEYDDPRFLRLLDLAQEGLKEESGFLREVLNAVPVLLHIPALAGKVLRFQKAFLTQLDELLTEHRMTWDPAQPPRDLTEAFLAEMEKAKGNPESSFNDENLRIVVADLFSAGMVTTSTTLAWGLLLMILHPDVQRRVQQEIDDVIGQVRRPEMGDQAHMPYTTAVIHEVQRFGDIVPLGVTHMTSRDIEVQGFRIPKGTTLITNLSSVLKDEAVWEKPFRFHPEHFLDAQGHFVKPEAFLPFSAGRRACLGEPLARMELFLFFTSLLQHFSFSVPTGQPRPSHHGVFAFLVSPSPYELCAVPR
Description: as §1, §2

CYP2C19 = biological target: T4, CYP2C19 (Homo sapiens, UniProt P33261); experiment: Cytochrome P450 inhibition, human liver microsomes; format: in vitro ADME
T4 construct: incubation of isoform-specific substrates with human liver microsomes; from tissue; host or cells: human liver microsomes
T4 sequence (P33261 whole entry, canonical isoform): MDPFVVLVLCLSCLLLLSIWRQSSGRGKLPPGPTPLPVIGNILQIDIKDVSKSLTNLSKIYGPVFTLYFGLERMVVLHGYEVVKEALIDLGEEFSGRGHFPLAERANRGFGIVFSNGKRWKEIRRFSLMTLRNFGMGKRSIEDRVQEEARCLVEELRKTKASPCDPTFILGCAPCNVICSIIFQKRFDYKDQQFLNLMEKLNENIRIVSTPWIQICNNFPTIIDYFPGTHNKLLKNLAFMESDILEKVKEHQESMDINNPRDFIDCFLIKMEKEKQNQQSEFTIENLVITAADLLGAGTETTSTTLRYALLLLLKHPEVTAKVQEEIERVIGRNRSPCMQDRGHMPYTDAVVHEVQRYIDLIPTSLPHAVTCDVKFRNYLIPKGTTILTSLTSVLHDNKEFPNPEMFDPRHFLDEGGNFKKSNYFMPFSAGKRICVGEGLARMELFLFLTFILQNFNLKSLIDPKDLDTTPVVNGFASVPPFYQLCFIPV
Description: as §1, §2

[1] = system: hiPSc-CMs (cardiomyocytes); experiment: hiPSc-CM multielectrode (MEA) assay; format: cell-based, human; details: 0.37, 1.11, 3.33, 10 and 30 µM
Description: The hIPSc-CM assay was conducted to identify DNDI-6174-induced changes in field potential duration (FPD ≈ QT interval), total spike amplitude (TSA ≈ QRS interval) and beat rate. Inducible pluripotent stem cell-derived cardiomyocytes (hiPSc-CMs, iCell2, Cellular Dynamics) were maintained in culture medium (50,000 cells/well) for 7 days. Full media changes were done every 48 h. Following baseline recording, and right after the 1 hour compound treatment time (n=8/concentration, 5 concentrations), 1 min recording of activity was taken daily starting on Day 3 through Day 7 using the Maestro multi-electrode Array System (Axion BioSystems; 48 or 96-well plate). 3μM Quinidine was used as a control for hERG and hNaV1.5 block.

[2] = with NADPH preincubation, read-out: Time-dependent inhibition IC50
[3] = without NADPH preincubation, read-out: Time-dependent inhibition IC50

Cc1[nH]c2nc(N)nc(C)c2c1-c1ccc(C#N)c2c1OCO2 [DNDI-6174]
IC50 (CYP2C8; CYP2C8, read-out: Direct inhibition IC50): > 20 µM | IC50 (CYP2C8; [2]): 3.2 µM | IC50 (CYP2C8; [3]): > 20 µM | IC50 (CYP2B6; CYP2B6, read-out: Direct inhibition IC50): > 20 µM | IC50 (CYP2B6; [2]): > 20 µM | IC50 (CYP2B6; [3]): > 20 µM | IC50 (CYP3A4/5; probe midazolam (1'-hydroxylation), CYP3A4/5, midazolam): > 20 µM | IC50 at 30 min (CYP3A4/5; probe midazolam (1'-hydroxylation), midazolam, with NADPH preincubation): 1.9 µM | IC50 at 30 min (CYP3A4/5; probe midazolam (1'-hydroxylation), midazolam, without NADPH preincubation): > 20 µM | IC50 (CYP3A4/5; probe testosterone (6β-hydroxylation), CYP3A4/5, testosterone): 12.3 µM | IC50 at 30 min (CYP3A4/5; probe testosterone (6β-hydroxylation), testosterone, with NADPH preincubation): 0.71 µM | IC50 at 30 min (CYP3A4/5; probe testosterone (6β-hydroxylation), testosterone, without NADPH preincubation): 8 µM | IC50 (CYP2D6; CYP2D6, read-out: Direct inhibition IC50): 19 µM | IC50 (CYP2D6; [2]): 0.49 µM | IC50 (CYP2D6; [3]): 9.8 µM | IC50 (CYP2C19; CYP2C19, read-out: Direct inhibition IC50): 19 µM | IC50 (CYP2C19; [2]): 7.4 µM | IC50 (CYP2C19; [3]): 13.6 µM | field potential duration, spike amplitude and beat period, in words [1]: no notable change in the field potential duration; also recorded: No significant change in the field potential
